Laboratory results taken from ChEMBL document CHEMBL4118232, “Design, synthesis and biological evaluation of pyrimidine derivatives as novel CDK2 inhibitors that induce apoptosis and cell cycle arrest in breast cancer cells” (Bioorg Med Chem, 2018).
Each block holds one compound with its values, some of them ahead of it. Calls of active or inactive are those of the source. The calls are words filed in the database; no cut-off is given here.

Experiments:
[1] = target: Cyclin-dependent kinase 2/cyclin E1 (Homo sapiens, UniProt P24941); test: Inhibition of recombinant human CDK2/cyclin E after 40 mins by ADP-Glo reagent based luminescence assay; type: protein-complex assay
[2] = system: MDA-MB-231; test: Growth inhibition of human MDA-MB-231 cells at 20 uM by MTT assay; type: functional, cell-based
[3] = system: 786-0; test: Growth inhibition of human 786-O cells at 20 uM by MTT assay; type: functional, cell-based
[4] = system: MDA-MB-468; test: Growth inhibition of human MDA-MB-468 cells at 20 uM by MTT assay; type: functional, cell-based
[5] = system: HepG2; test: Growth inhibition of human HepG2 cells at 20 uM by MTT assay; type: functional, cell-based
[6] = system: WM 266-4; test: Growth inhibition of human WM266.4 cells at 20 uM by MTT assay; type: functional, cell-based
[7] = system: MCF7; test: Growth inhibition of human MCF7 cells at 20 uM by MTT assay; type: functional, cell-based
[8] = target: Cyclin-dependent kinase 2 (Homo sapiens) (UniProt P24941); test: Inhibition of CDK2 in human MDA-MB-468 cells assessed as increase in cleaved PARP expression level at 15 uM measured up to 36 hrs by Western blot analysis; type: cell-based
[9] = target: Cyclin-dependent kinase 2 (Homo sapiens) (UniProt P24941); test: Inhibition of CDK2 in human MDA-MB-468 cells assessed as increase in cleaved caspase 3 expression level at 15 uM measured up to 36 hrs by Western blot analysis; type: cell-based
[10] = target: Cyclin-dependent kinase 2 (Homo sapiens) (UniProt P24941); test: Inhibition of CDK2 in human MDA-MB-468 cells assessed as decrease in caspase 3 expression level at 15 uM measured up to 36 hrs by Western blot analysis; type: cell-based
[11] = target: Cyclin-dependent kinase 4/cyclin D1 (Homo sapiens, UniProt P11802); test: Inhibition of recombinant human CDK4/cyclin D1 after 40 mins by ADP-Glo reagent based luminescence assay; type: protein-complex assay
[12] = target: CDK6/cyclin D3 (Homo sapiens, UniProt Q00534); test: Inhibition of recombinant human CDK6/cyclin D3 after 40 mins by ADP-Glo reagent based luminescence assay; type: protein-complex assay
[13] = target: CDK7/Cyclin H/MNAT1 (Homo sapiens, UniProt P50613); test: Inhibition of recombinant human CDK7/cyclin H/MNAT1 after 40 mins by ADP-Glo reagent based luminescence assay; type: protein-complex assay
[14] = system: MDA-MB-468; test: Antiproliferative activity against human MDA-MB-468 cells after 24 hrs by MTT assay; type: functional, cell-based; settings: MDA-MB-468, 24 h
[15] = system: MDA-MB-468; test: Antiproliferative activity against human MDA-MB-468 cells after 48 hrs by MTT assay; type: functional, cell-based; settings: MDA-MB-468, 48 h
[16] = system: MDA-MB-468; test: Antiproliferative activity against human MDA-MB-468 cells after 72 hrs by MTT assay; type: functional, cell-based; settings: MDA-MB-468, 72 h
[17] = system: MDA-MB-468; test: Cell cycle arrest in human MDA-MB-468 cells assessed as accumulation at G1 phase at 15 uM after 24 hrs by propidium iodide staining based flow cytometry (reference value: 46.38%); type: functional
[18] = system: MDA-MB-468; test: Cell cycle arrest in human MDA-MB-468 cells assessed as accumulation at G2 phase at 15 uM after 24 hrs by propidium iodide staining based flow cytometry (reference value: 14.16%); type: functional
[19] = system: MDA-MB-468; test: Cell cycle arrest in human MDA-MB-468 cells assessed as accumulation at S phase at 15 uM after 24 hrs by propidium iodide staining based flow cytometry (reference value: 39.46%); type: functional
[20] = target: Cyclin-dependent kinase 2 (Homo sapiens) (UniProt P24941); test: Inhibition of CDK2 in human MDA-MB-468 cells assessed as decrease in CDK2 phosphorylation at […] residues at 15 uM after 12 to 26 hrs by Western blot analysis; type: cell-based
[21] = target: Cyclin-dependent kinase 2 (Homo sapiens) (UniProt P24941); test: Inhibition of CDK2 in human MDA-MB-468 cells assessed as decrease in cyclin E phosphorylation at Thr62 residues at 15 uM after 12 to 26 hrs by Western blot analysis; type: cell-based
[22] = system: MDA-MB-468; test: Induction of morphological changes in human MDA-MB-468 cells at 15 uM after 6 to 24 hrs by Hoechst 33258 staining based fluorescence microscopy; type: functional, cell-based
[23] = system: MDA-MB-468; test: Induction of apoptosis in human MDA-MB-468 cells assessed as viable cells at 15 uM after 6 hrs by Annexin V-FITC/PI staining based flow cytometry (reference value: 91.43%); type: functional; settings: MDA-MB-468, 6 h, read-out: Activity
[24] = system: MDA-MB-468; test: Induction of apoptosis in human MDA-MB-468 cells assessed as early apoptotic cells at 15 uM after 6 hrs by Annexin V-FITC/PI staining based flow cytometry (reference value: 5.74%); type: functional
[25] = system: MDA-MB-468; test: Induction of apoptosis in human MDA-MB-468 cells assessed as late apoptotic cells at 15 uM after 6 hrs by Annexin V-FITC/PI staining based flow cytometry (reference value: 2.49%); type: functional
[26] = system: MDA-MB-468; test: Induction of apoptosis in human MDA-MB-468 cells assessed as necrotic cells at 15 uM after 6 hrs by Annexin V-FITC/PI staining based flow cytometry (reference value: 0.34%); type: functional
[27] = system: MDA-MB-468; test: Induction of apoptosis in human MDA-MB-468 cells assessed as viable cells at 15 uM after 12 hrs by Annexin V-FITC/PI staining based flow cytometry (reference value: 91.43%); type: functional; settings: MDA-MB-468, 12 h, read-out: Activity
[28] = system: MDA-MB-468; test: Induction of apoptosis in human MDA-MB-468 cells assessed as early apoptotic cells at 15 uM after 12 hrs by Annexin V-FITC/PI staining based flow cytometry (reference value: 5.74%); type: functional
[29] = system: MDA-MB-468; test: Induction of apoptosis in human MDA-MB-468 cells assessed as late apoptotic cells at 15 uM after 12 hrs by Annexin V-FITC/PI staining based flow cytometry (reference value: 2.49%); type: functional
[30] = system: MDA-MB-468; test: Induction of apoptosis in human MDA-MB-468 cells assessed as necrotic cells at 15 uM after 12 hrs by Annexin V-FITC/PI staining based flow cytometry (reference value: 0.34%); type: functional
[31] = system: MDA-MB-468; test: Induction of apoptosis in human MDA-MB-468 cells assessed as viable cells at 15 uM after 24 hrs by Annexin V-FITC/PI staining based flow cytometry (reference value: 91.43%); type: functional; settings: MDA-MB-468, 24 h, read-out: Activity
[32] = system: MDA-MB-468; test: Induction of apoptosis in human MDA-MB-468 cells assessed as early apoptotic cells at 15 uM after 24 hrs by Annexin V-FITC/PI staining based flow cytometry (reference value: 5.74%); type: functional
[33] = system: MDA-MB-468; test: Induction of apoptosis in human MDA-MB-468 cells assessed as late apoptotic cells at 15 uM after 24 hrs by Annexin V-FITC/PI staining based flow cytometry (reference value: 2.49%); type: functional
[34] = system: MDA-MB-468; test: Induction of apoptosis in human MDA-MB-468 cells assessed as necrotic cells at 15 uM after 24 hrs by Annexin V-FITC/PI staining based flow cytometry (reference value: 0.34%); type: functional
[35] = target: Cyclin-dependent kinase 2 (Homo sapiens) (UniProt P24941); test: Inhibition of CDK2 in human MDA-MB-468 cells assessed as increase in bax expression level at 15 uM measured up to 36 hrs by Western blot analysis; type: cell-based
[36] = target: Cyclin-dependent kinase 2 (Homo sapiens) (UniProt P24941); test: Inhibition of CDK2 in human MDA-MB-468 cells assessed as increase in bim expression level at 15 uM measured up to 36 hrs by Western blot analysis; type: cell-based
[37] = system: MDA-MB-468; test: Effect on cyclin E level in human CDK2-siRNA MDA-MB-468 cells at 15 uM by Western blot analysis; type: functional, cell-based
[38] = system: MDA-MB-468; test: Effect on bim level in human CDK2-siRNA MDA-MB-468 cells at 15 uM by Western blot analysis; type: functional, cell-based

Chain of CDK6/cyclin D3 (P30281 whole entry): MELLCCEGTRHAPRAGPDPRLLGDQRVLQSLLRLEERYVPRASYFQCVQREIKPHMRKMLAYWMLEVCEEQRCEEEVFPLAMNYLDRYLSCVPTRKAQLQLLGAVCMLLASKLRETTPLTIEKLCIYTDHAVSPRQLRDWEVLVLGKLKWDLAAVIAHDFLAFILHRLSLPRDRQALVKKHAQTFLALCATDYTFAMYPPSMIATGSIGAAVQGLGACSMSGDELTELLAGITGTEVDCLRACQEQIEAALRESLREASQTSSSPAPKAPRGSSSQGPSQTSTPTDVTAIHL
Chain of CDK6/cyclin D3 (Q00534 whole entry): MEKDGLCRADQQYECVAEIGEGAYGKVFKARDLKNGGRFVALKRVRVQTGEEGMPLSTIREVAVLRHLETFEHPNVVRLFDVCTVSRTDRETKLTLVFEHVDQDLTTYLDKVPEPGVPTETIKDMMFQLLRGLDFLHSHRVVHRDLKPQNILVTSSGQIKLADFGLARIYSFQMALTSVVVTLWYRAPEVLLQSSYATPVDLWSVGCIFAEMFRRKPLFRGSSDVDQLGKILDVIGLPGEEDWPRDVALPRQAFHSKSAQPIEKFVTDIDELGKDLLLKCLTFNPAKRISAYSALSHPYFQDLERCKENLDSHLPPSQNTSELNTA
Chain of CDK7/Cyclin H/MNAT1 (P51946 whole entry): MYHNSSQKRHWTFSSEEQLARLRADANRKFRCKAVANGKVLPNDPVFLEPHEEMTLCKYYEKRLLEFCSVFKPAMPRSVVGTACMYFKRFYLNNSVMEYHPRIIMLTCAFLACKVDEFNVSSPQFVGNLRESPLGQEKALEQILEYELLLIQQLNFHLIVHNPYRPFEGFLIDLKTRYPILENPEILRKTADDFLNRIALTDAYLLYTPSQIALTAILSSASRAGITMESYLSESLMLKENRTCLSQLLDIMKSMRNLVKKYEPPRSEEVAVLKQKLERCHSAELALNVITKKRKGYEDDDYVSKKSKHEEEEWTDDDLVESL
Chain of CDK7/Cyclin H/MNAT1 (P50613 whole entry): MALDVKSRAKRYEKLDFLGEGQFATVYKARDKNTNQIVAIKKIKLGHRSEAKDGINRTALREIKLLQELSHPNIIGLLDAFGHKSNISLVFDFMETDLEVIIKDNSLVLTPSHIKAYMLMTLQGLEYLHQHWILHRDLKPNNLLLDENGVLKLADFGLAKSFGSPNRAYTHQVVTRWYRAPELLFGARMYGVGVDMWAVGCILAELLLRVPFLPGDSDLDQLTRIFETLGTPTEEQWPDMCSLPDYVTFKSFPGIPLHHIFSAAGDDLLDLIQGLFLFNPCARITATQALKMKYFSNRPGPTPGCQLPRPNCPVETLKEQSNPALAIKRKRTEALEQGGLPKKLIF
Chain of CDK7/Cyclin H/MNAT1 (P51948 whole entry, further chain): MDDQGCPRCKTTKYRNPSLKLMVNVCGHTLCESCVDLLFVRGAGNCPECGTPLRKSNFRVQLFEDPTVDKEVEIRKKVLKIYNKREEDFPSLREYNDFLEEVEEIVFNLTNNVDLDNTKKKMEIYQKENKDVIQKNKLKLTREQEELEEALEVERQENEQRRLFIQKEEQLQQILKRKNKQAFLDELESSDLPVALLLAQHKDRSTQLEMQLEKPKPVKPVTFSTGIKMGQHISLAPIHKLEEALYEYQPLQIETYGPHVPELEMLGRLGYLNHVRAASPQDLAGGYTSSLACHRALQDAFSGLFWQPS
Chain of Cyclin-dependent kinase 4/cyclin D1 (P11802 whole entry): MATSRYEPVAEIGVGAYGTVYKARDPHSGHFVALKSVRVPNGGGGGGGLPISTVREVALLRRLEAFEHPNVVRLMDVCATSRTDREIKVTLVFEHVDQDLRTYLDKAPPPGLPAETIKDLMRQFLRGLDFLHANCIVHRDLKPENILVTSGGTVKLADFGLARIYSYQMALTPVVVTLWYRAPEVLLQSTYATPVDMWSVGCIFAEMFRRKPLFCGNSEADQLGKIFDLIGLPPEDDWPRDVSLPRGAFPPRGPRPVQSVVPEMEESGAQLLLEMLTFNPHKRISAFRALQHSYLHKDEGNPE
Chain of Cyclin-dependent kinase 4/cyclin D1 (P24385 whole entry, further chain): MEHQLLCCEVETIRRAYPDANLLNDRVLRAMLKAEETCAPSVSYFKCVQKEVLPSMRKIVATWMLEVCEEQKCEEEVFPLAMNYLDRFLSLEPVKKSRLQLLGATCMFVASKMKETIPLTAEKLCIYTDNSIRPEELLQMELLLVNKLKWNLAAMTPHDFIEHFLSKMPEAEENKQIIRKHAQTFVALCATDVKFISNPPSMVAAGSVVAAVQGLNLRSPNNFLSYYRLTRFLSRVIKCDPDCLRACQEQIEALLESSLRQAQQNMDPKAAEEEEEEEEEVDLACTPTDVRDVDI

IC50 [1]: 241 nM
SMILES: O=C(NC1CCN(c2nccc(Nc3ccc(F)cc3)n2)CC1)c1ccccc1F

IC50 [1]: 399 nM
SMILES: Cc1ccccc1Nc1ccnc(N2CCC(NC(=O)c3ccccc3F)CC2)n1

IC50 [1]: 276 nM
SMILES: Cc1ccc(C(=O)NC2CCN(c3nccc(Nc4ccc(F)cc4)n3)CC2)cc1

IC50 [1]: 206 nM
SMILES: O=C(NC1CCN(c2nccc(Nc3ccc(F)cc3)n2)CC1)c1cccc(Cl)c1

IC50 [1]: 313 nM
SMILES: COc1ccc(Nc2ccnc(N3CCC(NC(=O)c4cccc(Cl)c4)CC3)n2)cc1

IC50 [1]: 153 nM
SMILES: Cc1cc(Nc2ccc(F)cc2)nc(N2CCC(NC(=O)c3ccc(F)cc3)CC2)n1

IC50 [1]: 276 nM
SMILES: COc1ccc(Nc2ccnc(N3CCC(NC(=O)c4ccc(OC)cc4)CC3)n2)cc1

IC50 [1]: 288 nM
SMILES: Cc1cccc(C(=O)NC2CCN(c3nccc(Nc4ccccc4C)n3)CC2)c1

IC50 [1]: 405 nM
SMILES: COc1ccc(Nc2ccnc(N3CCC(NC(=O)c4ccc(F)cc4)CC3)n2)cc1

IC50 [1]: 386 nM
SMILES: Cc1cccc(C(=O)NC2CCN(c3nccc(Nc4ccc(F)cc4)n3)CC2)c1

IC50 [1]: 459 nM
SMILES: Cc1ccccc1Nc1ccnc(N2CCC(NC(=O)c3ccc(F)cc3)CC2)n1

IC50 [1]: 501 nM
SMILES: Cc1ccccc1Nc1ccnc(N2CCC(NC(=O)c3cccc(Cl)c3)CC2)n1

IC50 [1]: 205 nM
SMILES: Cc1cc(Nc2ccc(F)cc2)nc(N2CCC(NC(=O)c3ccccc3F)CC2)n1

inhibition [8]: Active | inhibition [9]: Active | inhibition [10]: Active | IC50 [1]: 45.8 to 54.3 nM | IC50 [11]: 278 nM | IC50 [12]: 54.3 to 73.7 nM | IC50 [13]: 89.8 nM | IC50 [14]: 14300 nM | IC50 [15]: 8960 nM | IC50 [16]: 5740 nM | inhibition [20]: Active | inhibition [21]: Active | inhibition [35]: Active | inhibition [36]: Active
SMILES: COc1ccc(C(=O)NC2CCN(c3nccc(Nc4ccc(F)cc4)n3)CC2)cc1
growth inhibition (GI) [2]: Active | growth inhibition (GI) [3]: Active | growth inhibition (GI) [4]: Active | growth inhibition (GI) [5]: Active | growth inhibition (GI) [6]: Active | growth inhibition (GI) [7]: Active | Activity [17]: 65.11% | Activity [18]: 9.64% | Activity [19]: 25.25% | Activity [22]: Active | viability at 15 µM [23]: 89.2% | Activity [24]: 4.62% | Activity [25]: 5.28% | Activity [26]: 0.87% | viability at 15 µM [27]: 76.6% | Activity [28]: 3.82% | Activity [29]: 16.82% | Activity [30]: 2.73% | viability at 15 µM [31]: 65.8% | Activity [32]: 6.02% | Activity [33]: 24.68% | Activity [34]: 3.46% | Activity [37]: inactive | Activity [38]: inactive

IC50 [1]: 151 nM
SMILES: O=C(NC1CCN(c2nccc(Nc3ccc(F)cc3)n2)CC1)c1ccc(F)cc1

IC50 [1]: 288 nM
SMILES: Cc1ccc(C(=O)NC2CCN(c3nc(C)cc(Nc4ccc(F)cc4)n3)CC2)cc1

IC50 [1]: 286 nM
SMILES: COc1ccc(C(=O)NC2CCN(c3nccc(Nc4ccccc4C)n3)CC2)cc1

IC50 [1]: 54.2 nM
SMILES: COc1ccc(C(=O)NC2CCN(c3nc(C)cc(Nc4ccc(F)cc4)n3)CC2)cc1

IC50 [1]: 380 nM
SMILES: Cc1cccc(C(=O)NC2CCN(c3nc(C)cc(Nc4ccc(F)cc4)n3)CC2)c1

IC50 [1]: 287 nM
SMILES: Cc1cc(Nc2ccc(F)cc2)nc(N2CCC(NC(=O)c3cccc(Cl)c3)CC2)n1

IC50 [1]: 474 nM
SMILES: COc1ccc(Nc2ccnc(N3CCC(NC(=O)c4cccc(C)c4)CC3)n2)cc1

IC50 [1]: 280 nM
SMILES: COc1ccc(Nc2ccnc(N3CCC(NC(=O)c4ccccc4F)CC3)n2)cc1

IC50 [1]: 378 nM
SMILES: COc1ccc(Nc2ccnc(N3CCC(NC(=O)c4ccc(C)cc4)CC3)n2)cc1

IC50 [1]: 567 nM
SMILES: Cc1ccc(C(=O)NC2CCN(c3nccc(Nc4ccccc4C)n3)CC2)cc1
